# Where no end group is shown, it is not given here.
# Tests used:
# [1] = system: female ICR mice; assay: Induction of catatonia in mice by i.c. injection of serum; assay type: in vivo; conditions: simultaneous i.c. injection 0.2 mg
# From the text: It is well known that large doses of opiate-like substances can induce a catatonic state in animals which is inhibited or reversed by treatment with the opiate antagonist naloxone. In analogy with the results in earlier examples, the ability of a peptide (qamma-ODNE) complementary to an opiate peptide, qamma-endorphin, to induce antibodies that have opiate properties was examined.
# Gamma-ODNE (Example II) was conjugated to Keyhole Limpet Hemocyanin ([…]) and used with Freund's adjuvant to generate rabbit antibodies in a conventional manner (see Example 1F). Both normal and induced rabbit sera were injected intracerebroventicularly (i.c.) into female ICR mice.
# [2] = system: mouse adrenal tumor (Y-1) cells; assay: Binding of anti-HTCA to affixed mouse adrenal tumor (Y-1) cells; conditions: absorbency at 405 nM; FIG. 5
# Description: Mouse adrenal tumor (Y-1) cells were affixed by glutaraldehyde in flat bottom wells of a microtiter plate. The affixed cells were then treated with rabbit anti-KLH or rabbit anti-HTCA alone or in the presence of several levels of ACTH. After washing, the microtiter wells were treated with goat antibody to rabbit immunoglobulin the goat antibody being coupled to the enzyme alkaline phosphatase. After washing away unbound antibody-phosphatase complex, p-nitrophenyl phosphate was added and the enzyme dependent development of absorbency at 405 nM was monitored. […] ACTH and anti-HTCA appeared competitive for the same binding site on the mouse adrenal tumor (Y-1) cells. Rabbit anti KLH had no effect (shaded region)
# [3] = molecular target: T1, mouse adrenal tumor cell ACTH receptor (Mus musculus, UniProt Q64326); assay: Glucocorticoid hormone production by mouse adrenal tumor (Y-1) cells; assay type: cell-based; conditions: ACTH 10 microunits/well, 18 hrs
# T1 construct: Duplicate cultures of mouse adrenal tumor (Y-1) cells in microtiter plates; endogenous in cells; host or cells: mouse adrenal tumor (Y-1) cells
# Description: An induction of glucocorticoid hormone production by ACTH and anti-HTCA was found with cultured mammalian cells. Duplicate cultures of mouse adrenal tumor (Y-1) cells in microtiter plates were treated with culture media, ACTH (10 microunits/well) or various dilutions of the anti-HTCA.
# ^a Duplicate cultures of mouse adrenal (Y1) cells in microtiter plate
# were treated with culture media, ACTH (10 microunits/well) or the
# indicated dilutions of antibody to HTCA. After 18 hrs incubation at
# 37° in 4% CO2, replicate cultures were pooled and assayed for
# glucocorticoid hormone production by a radioimmunoassay (RIA) for […]
# [4] = system: HTCA; assay: Solid phase radiobinding assay for serum ACTH on HTCA-coated wells; assay type: binding; conditions: for Log10 Dilution at 50% inhibition: graphic interpolation
# Description: Complementary peptide (HTCA) was dissolved in phosphate buffered saline (PBS) at 1 mg/ml and 200 ul aliquots were placed in wells of a 96 well polyvinyl assay plate (Microtest III, Falcon Cat. #3911). HTCA was allowed to coat the wells overnight at 4° C. The coating solution was removed and the wells were washed three times with PBS. Radiolabeled ACTH (^125 I-ACTH, New England Nuclear NEX-65) was diluted into PBS containing 0.0005% TWEEN-20 so as to deliver 50 pg (or about 30,000 cpm) in a 20 ul volume.
# Serum samples were prepared in a 96 well tissue culture plate by serial dilution of serum into PBS/TWEEN 20 to give a final volume of 180 ul/well. The serum samples were then transferred to the HTCA coated a ssay plate and allowed to incubate. Finally, 20 ul of ^125 I-ACTH solution was added, incubated, and the total sample of 200 ul was removed. After washing three times with PBS, the wells were cut from the plate and counted in a gamma counter.
# Serum samples used in this study contained either 50 pg/ml or 500 pg/ml of ACTH added to fetal calf serum (FCS).
# [5] = molecular target: T2, bovine gamma-endorphin (Bos taurus, UniProt P01190); assay: ELISA binding of gamma-endorphin to coated wells; conditions: gamma-odne 40 ug/well vs insulin or BSA; absorbance 405 nm; FIG. 7
# T2 construct: purchased Boehringer Mannheim (Indianapolis, Ind.); host or cells: chemical synthesis
# Description: Synthetic bovine gamma-endorphin was obtained from Boehringer Mannheim (Indianapolis, Ind.) and rabbit antibody for synthetic gamma-endo was obtained from Accurate Biochemicals (Westbury, N.Y.).
# The wells of a 96-well round-bottomed microtiter plate were coated (by the procedure described in Example 1B) with gamma-odne (40 ug/well), insulin (20U/well) or bovine serum albumin (BSA,200 ug/well . Varying concentrations of gamma-endorphin (as shown on the abscissa in FIG. 7) were incubated in the coated wells for 1 hr, after which the plates were thrice washed with PBS-Tween buffer. The wells were then treated with rabbit antibody for gamma-endorphin, washed, and then treated with goat antibody against rabbit immunoglobulin the goat antibody being conjugated to alkaline phosphatase. After washing away unbound goat antibody conjugate, the bound alkaline phosphatase activity was measured with p-nitrophenylphosphate as earlier described. The results of the above manipulations are shown in FIG. 7 where the extent of absorbance at 405 nm reflects the degree of gamma-endorphin binding to wells coated with gamma-odne, insulin or BSA. […] The shaded area in FIG. 7 represents the extent of gamma-endorphin binding in the presence of soluble excess of gamma-odne. Thus it is shown that a second pair of complementary peptides interacts in a manner showing affinity and apparent congruence.
# [6] = system: opiate receptors on NG108-15 cells; assay: Inhibition of 125I-beta-endorphin binding to NG108-15 cells; conditions: 125I-beta-endorphin 10^-11 M
# From the text: NG108-15 cells are known to contain receptors for beta-endorphin called opiate receptors. In addition to beta-endorphin, gamma-endorphin and several analogs of beta-endorphin bind to these opiate receptors. The peptide, gamma-ODNE, complementary to gamma-endorphin described in Example II was examined for its ability to inhibit the binding of ^125 I-beta-endorphin to opiate receptors on NG108-15 cells. Gamma-endorphin is a fragment of the larger peptide beta-endorphin.
# Seventy percent of the total binding was specific by conventional criteria.
# For this experiment, ^1251 -beta-endorphin was preincubated 30 minutes with various amounts of the complementary peptide, gamma-ODNE, before a 30 minute (37° C.) incubation with NG108-15 cells in microtiter wells. After the incubation, cells were washed 3 times and cell associated radioactivity wad determined with a Packard Multi-Prias gamma counter.
# Sequence of HTCA (as listed by the source): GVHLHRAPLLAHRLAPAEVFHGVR
# T1 sequence (Q64326 whole entry): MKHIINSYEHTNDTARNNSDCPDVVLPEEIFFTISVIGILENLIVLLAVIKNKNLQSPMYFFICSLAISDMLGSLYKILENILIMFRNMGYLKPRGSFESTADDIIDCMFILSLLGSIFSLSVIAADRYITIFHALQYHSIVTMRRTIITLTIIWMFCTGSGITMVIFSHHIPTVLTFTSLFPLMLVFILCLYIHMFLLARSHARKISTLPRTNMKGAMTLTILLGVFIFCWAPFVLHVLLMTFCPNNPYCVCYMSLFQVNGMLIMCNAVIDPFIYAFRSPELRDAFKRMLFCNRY
# T1 sequence (Q9D159 whole entry partner): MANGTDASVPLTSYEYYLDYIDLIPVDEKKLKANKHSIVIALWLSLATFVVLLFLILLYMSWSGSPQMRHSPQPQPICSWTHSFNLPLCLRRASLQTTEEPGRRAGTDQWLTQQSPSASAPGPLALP
compound,measurement,setting,value
C=CCN1CC[C@]23c4c5ccc(O)c4O[C@H]2C(=O)CC[C@@]3(O)[C@H]1C5 [naloxone],effect on serum-induced catatonia,[1],reversed
"ACTH: Synthetic ACTH, fragment 1-24, from Organon; unlabelled ACTH competitor in binding assays",effect on binding of anti-HTCA to affixed Y-1 cells,[2],blocked binding of the anti-HTCA in a dose dependent manner
same,"Corticosterone equivalents, Experiment 1",[3],1.08 µg/mL
same,"Corticosterone equivalents, Experiment 2",[3],1.42 µg/mL
same,% Inhibition of Specific Binding,"[4]; 50 pg/ml ACTH in FCS, Log10 Dilution -0.5",73%
same,% Inhibition of Specific Binding,"[4]; 50 pg/ml ACTH in FCS, Log10 Dilution -1.0",40%
same,% Inhibition of Specific Binding,"[4]; 50 pg/ml ACTH in FCS, Log10 Dilution -1.5",44%
same,% Inhibition of Specific Binding,"[4]; 50 pg/ml ACTH in FCS, Log10 Dilution -2.0",9%
same,% Inhibition of Specific Binding,"[4]; 50 pg/ml ACTH in FCS, Log10 Dilution -2.5",1%
same,% Inhibition of Specific Binding,"[4]; 50 pg/ml ACTH in FCS, Log10 Dilution -3.0",0%
same,% Inhibition of Specific Binding,"[4]; 50 pg/ml ACTH in FCS, Log10 Dilution -3.5",0%
same,Log10 Dilution at 50% inhibition,[4]; 50 pg/ml serum sample,-1.1
same,% Inhibition of Specific Binding,"[4]; 500 pg/ml ACTH in FCS, Log10 Dilution -0.5",90%
same,% Inhibition of Specific Binding,"[4]; 500 pg/ml ACTH in FCS, Log10 Dilution -1.0",77%
same,% Inhibition of Specific Binding,"[4]; 500 pg/ml ACTH in FCS, Log10 Dilution -1.5",57%
same,% Inhibition of Specific Binding,"[4]; 500 pg/ml ACTH in FCS, Log10 Dilution -2.0",53%
same,% Inhibition of Specific Binding,"[4]; 500 pg/ml ACTH in FCS, Log10 Dilution -2.5",35%
same,% Inhibition of Specific Binding,"[4]; 500 pg/ml ACTH in FCS, Log10 Dilution -3.0",32%
same,% Inhibition of Specific Binding,"[4]; 500 pg/ml ACTH in FCS, Log10 Dilution -3.5",20%
same,Log10 Dilution at 50% inhibition,[4]; 500 pg/ml serum sample,-2.0
"QRDKGRLALLGGHEPAV [gamma-odne, H2 N--gln--arg--asp--lys--gly--arg--leu--ala--leu--leu--gly--gly--his--glu--pro--ala--val--COOH]",gamma-endorphin binding to coated wells (in words),[5],significantly bound
same,% Inhibition of Specific 125I-beta-endorphin,[6]; 10^-4 M,75.0 ± 0.6%
same,% Inhibition of Specific 125I-beta-endorphin,[6]; 10^-5 M,36.0 ± 2.1%
same,% Inhibition of Specific 125I-beta-endorphin,"[6]; 10^-6 M, 30 min preincubation",24.7 ± 3.9%

# From patent US5212072A, “Polypeptides complementary to peptides or proteins having an amino acid sequence or nucleotide coding sequence at least partially known and methods of design therefor” (Board of Regents, The University of Texas System, priority 1991, dated 1993)
